The text below walks through data of patent US9096591B2, “Tetracyclic compounds” (Medivation Technologies, Inc., priority 2007, dated 2015).

SMILES strings stand for the structures. Several values for one entry are separate records, joined by “and”; a condition that tells them apart may be missing. Equal values may be shown once. Bounds are passed on as bounds.

Usually IC50 stands for the concentration needed to halve the response being measured.

Data set [1] deals with mice. As to the kind of experiment: recognition test of new location of a known object (spatial memory). It is filed as in vivo. To be noted: for overall effect on memory (in words): doses 0.05-1 mg/kg.
The subject of data set [2] is rat brain mitochondria. In words: Ca2+-induced swelling of mitochondria (MPT pore opening). It is filed as biochemical, Wistar rats. Conditions: rat brain mitochondria; for A540 increase in mitochondrial suspension after addition of 100 μM of compound: 100 μM compound; for IC50: read-out: IC50, Ca2+-induced (25-50 μM) swelling of brain mitochondria, Ca2+ 25-50 μM. As to the method:
Rat liver and brain mitochondria were prepared from male Wistar rats. The rats were euthanized in a CO2 chamber followed by decapitation the procedure being in compliance with the Guidelines for Animal Experiments at IPAC RAS. […]
Brain mitochondria were isolated from the pooled forebrains of two rats. The modified method of Sims was used to isolate and purify brain mitochondria in a Percoll gradient. The brain was homogenized in “buffer A” (225 mM mannitol, 75 mM sucrose, 5 mM HEPES, 1 mM EGTA, pH 7.4 [KOH]) and centrifuged for 10 min at 1300 g. The supernatant was centrifuged for 10 min at 10000 g, and then the pellet was suspended in 15% Percoll and layered on a discontinuous gradient consisting of 40 and 23% Percoll, respectively, which was then centrifuged for 10 min at 30000 g without using brakes. The mitochondria were collected from the interface of the lower two layers and after resuspension in “buffer A”, the suspension was centrifuged at 16600 g for 10 min, then the pellet was resuspended in “buffer A”, BSA (10 mg/mL) was added to bind free fatty acids; and the suspensions was centrifuged again at 6300 g for 10 min. Following centrifugation the pelleted mitochondria were re-suspended in isolation medium without EGTA to achieve a protein concentration of 15-20 mg/ml.
Mitochondrial swelling caused by influx of solutes through open PT pores results in an increase in light transmission (i.e., a reduced turbidity). This turbidity change offers a convenient and frequently used assay of the MPT by measurement of absorbance in mitochondrial suspensions. In the present study, the MPT induced by Ca^2+ and inorganic phosphate (Ca/Pi) was monitored by absorbance changes at 540 nm in a cuvette in a Beckman DU 640 spectrophotometer in 1 ml of buffer A plus 0.8 μM rotenone, 5 mM succinate, 1 mM KH2PO4 and 0.5 mg or 0.2 mg protein of isolated liver or brain mitochondria, accordingly. Reaction was started by the addition of triggering agent (Ca^2+). Pre-treatment and reaction were performed at 30° C. Swelling rate was quantified as ΔA540/min/mg, calculated, in all cases, from a tangent to the steepest portion of the plot of A540 versus time.
Ca^2+-induced Swelling of mitochondria was used as the primary screening test for compounds influence on MPT pore opening. […] But the inhibition of swelling may be connected not only with direct inhibition of MPT pore opening but also with the impairment of respiratory function of mitochondria and with the compounds action on calcium transport into mitochondria. For the primary estimation of these possibilities the mitochondrial membrane potential and calcium retention capacity of mitochondria were measured. […] New synthesized compounds (except C-14 and C-43) alone induced an increase of brain mitochondria suspension turbidity. The mechanism of such effect needs additional investigations.

Data set [3] has as its system rat brain mitochondria. As to the kind of experiment: Mitochondrial membrane potential (safranine test). Format: biochemical, Wistar rats. To be noted: suggested from membrane potential and calcium retention data (Table 15). As to the method: The same experimental conditions were used for the assessment of alterations of the mitochondrial membrane potential, except that safranine was included in incubation medium at a final concentration of 10 mkM and succinate was added before the compounds of the invention. This concentration of safranine was determined before hand as the optimal compromise between signal/baseline ratio and interference of safranine itself with swelling induced by Ca/Pi (safranine tended to enhance Ca/Pi-induced swelling at concentrations above 20 mkM). Changes in the status of the mPT pore were assessed spectrophotometrically at 554 and 524 nm in a cuvette in a Beckman DU 640 spectrophotometer. A554-524 represents the characteristics of mitochondrial potential and A554-characteristics of mitochondrial swelling.

Data set [4] concerns synaptosomes of cortex of rat brain. In words: Glutamate-induced 45Ca2+ uptake into synaptosomes. Format: biochemical, Wistar rats. Conditions: for % Ca of control (control-100%), glutamate-induced 45Ca2+ uptake into synaptosomes: rat cortex synaptosomes. Summed up:
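Cortical synaptosomes (P2 fraction) from 9-10-day-old Wistar rats, ~1.5-2 mg/ml protein in HEPES-buffered saline with glucose, pH 7.4, stimulated 5 min with 200 μM glutamate at 37° C. 45Ca2+ uptake measured by filtration and scintillation counting; specific uptake with compound expressed as percentage of glutamate-induced uptake, each corrected for unstimulated uptake.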

Regarding `Cc1ccc2c(c1)c1c(n2CCc2nc(-c3ccccc3)cs2)CCN(C)C1` [Compound C1-5], the “Influence on memory in the test recognition new localization of known object” value (shortened to “Influence on memory”) was “−” in data set [1] (Dose of Compound 0.05 mg/kg), “+” in data set [1] (Dose of Compound 0.1 mg/kg), “−” in data set [1] (Dose of Compound 0.5 mg/kg) and “+” in data set [1] (Dose of Compound 1.0 mg/kg). For the same compound, in data set [1] (comparison of effective doses), the “activity on memory compared with dimebon (in words)” value is “at a level dimebon”. Moreover, the “effect of the dose on exploration time / memory (in words)” value is recorded as “no effect” in data set [1] (mice, dose 0.05 mg/kg) and “disappearance of the stimulating effect on memory” in data set [1] (mice, dose 0.5 mg/kg). The “time exploring the object in a new location, % of the total time” value is on record as 57.9±7.5% in data set [1] (mice, dose 0.1 mg/kg) and 57.4±8.4% in data set [1] (mice, dose 1 mg/kg). Further, the “time exploring the object in the known position, % of the total time” value is 42.1±7.5% in data set [1] (mice, dose 0.1 mg/kg) and 42.6±8.4% in data set [1] (mice, dose 1 mg/kg). Further, in data set [1] (mice), the “overall effect on memory (in words)” value is listed as “stimulating effect on memory”. In data set [2], the “A540 increase in mitochondrial suspension after addition of 100 μM of compound” value (shortened to “A540 increase”) came to 30 rel.units. In data set [2], the IC50 worked out at 18 ± 16 µM. Further, in data set [3], the “impairment of mitochondrial respiratory functions accompanying inhibition of MPT” value is recorded as “impairment of mitochondrial respiratory functions”. For the same compound, in data set [4] (0.5 μM), the “inhibition of glutamate-induced 45Ca2+ uptake into synaptosomes” value is recorded as “about 22.5%”. Moreover, the “glutamate-induced 45Ca2+ uptake into synaptosomes of rat cortex, % Ca of control (control-100%)” value in data set [4] (C 100 μM) stood at 130%. The “% Ca of control (control-100%), glutamate-induced 45Ca2+ uptake into synaptosomes” value was 96.3 ± 5.6% in data set [4] (compound 0.1 μM); 77.5 ± 0.8% in data set [4] (compound 0.5 μM); 94 ± 3.4% in data set [4] (compound 1 μM); 96 ± 1.5% in data set [4] (compound 5 μM); 117.2 ± 1.3% in data set [4] (compound 10 μM); 115.4 ± 4.8% in data set [4] (compound 50 μM). In addition, the “% Ca of control (control-100%), glutamate-induced 45Ca2+ uptake into synaptosomes” value in data set [4] (compound 100 μM) worked out at 30.1 ± 7.4%.

For `COc1ccc2c(c1)c1c(n2CCc2nc(-c3ccccc3)cs2)CCN(C)C1` [Compound C1-6], in data set [2], the “A540 increase” value came to 1.5 rel.units and the IC50 is 12.7 ± 6.2 µM.

For `CN1CCc2c(c3cc(F)ccc3n2CCc2nc(-c3ccccc3)cs2)C1` [Compound C1-7], the “A540 increase” value in data set [2] was above 30 rel.units. Moreover, the IC50 in data set [2] is 28 ± 6 µM. Moreover, the “concentration at which glutamate-induced 45Ca2+ uptake into synaptosomes was increased” value in data set [4] was 5 to 100 µM. In addition, the “inhibition of glutamate-induced 45Ca2+ uptake into synaptosomes” value in data set [4] (0.1-0.5 μM) is around 27.3%. Moreover, the “glutamate-induced 45Ca2+ uptake into synaptosomes of rat cortex, % Ca of control (control-100%)” value in data set [4] (C 100 μM) was found to be 139.8%. Also, the “% Ca of control (control-100%), glutamate-induced 45Ca2+ uptake into synaptosomes” value in data set [4] (compound 0.1 μM) came to 77.5 ± 2.4%; in data set [4] (compound 0.5 μM), 72.7 ± 0.3%; in data set [4] (compound 1 μM) it was 98.6 ± 2.4%; in data set [4] (compound 5 μM), 131.8 ± 8.8%; in data set [4] (compound 10 μM), 134.5 ± 9.2%; in data set [4] (compound 50 μM), 126.7 ± 7.7%. Also, the “% Ca of control (control-100%), glutamate-induced 45Ca2+ uptake into synaptosomes” value in data set [4] (compound 100 μM) was 139.8 ± 6.5%.

As for `CN1CCc2c(c3ccccc3n2CCc2noc(-c3ccccc3)n2)C1` [Compound C4-1], the “Influence on memory” value is recorded as “−” in data set [1] (Dose of Compound 0.05 mg/kg), “+” in data set [1] (Dose of Compound 0.1 mg/kg), “−” in data set [1] (Dose of Compound 0.5 mg/kg) and “−” in data set [1] (Dose of Compound 1.0 mg/kg). In addition, the “A540 increase” value in data set [2] turned out to be 10 rel.units. Moreover, in data set [2], the IC50 amounted to 3.9 ± 1.6 µM. Further, the “impairment of mitochondrial respiratory functions accompanying inhibition of MPT” value in data set [3] was “impairment of mitochondrial respiratory functions”. For the same compound, the “inhibition of glutamate-induced 45Ca2+ uptake into synaptosomes” value in data set [4] (0.1-0.5 μM) was “about 20%”. For the same compound, the “glutamate-induced 45Ca2+ uptake into synaptosomes of rat cortex, % Ca of control (control-100%)” value in data set [4] (C 0.1 μM) was 79.4 ± 6.1%; in data set [4] (C 0.5 μM) it was 79.2 ± 10%; in data set [4] (C 1.0 μM), 106.1 ± 7.9%; in data set [4] (C 5.0 μM), 128% and 128 ± 4.5%; in data set [4] (C 10 μM) it was 107.6 ± 3.5%; in data set [4] (C 25 μM) it was 114.3 ± 0.5%. The “glutamate-induced 45Ca2+ uptake into synaptosomes of rat cortex, % Ca of control (control-100%)” value in data set [4] (C 50 μM) turned out to be 110.1 ± 5.1%; in data set [4] (C 100 μM), 115.9 ± 8.8%.

Regarding `Cc1ccc2c(c1)c1c(n2CCc2noc(-c3ccccc3)n2)CCN(C)C1` [Compound C4-4], the “Influence on memory” value in data set [1] (Dose of Compound 0.05 mg/kg) is “−”; in data set [1] (Dose of Compound 0.1 mg/kg) it was “+”; in data set [1] (Dose of Compound 0.5 mg/kg) it was “+”; in data set [1] (Dose of Compound 1.0 mg/kg), “+”. Besides, in data set [1] (mice), the “time after training for which the activating effect on memory is preserved” value is “about 48 hours”. Moreover, in data set [1] (mice, dose 0.05 mg/kg), the “effect of the dose on exploration time / memory (in words)” value is given as “no effect”. The “time exploring the object in a new location, % of the total time” value in data set [1] (mice, dose 0.1 mg/kg) is 58.5±9.6%; in data set [1] (mice, dose 0.5 mg/kg) it was 59.1±4.2%. Further, the “time exploring the object in the known position, % of the total time” value was 41.5±9.6% in data set [1] (mice, dose 0.1 mg/kg) and 40.9±4.2% in data set [1] (mice, dose 0.5 mg/kg). For the same compound, in data set [1] (mice), the “overall effect on memory (in words)” value is reported as “activating effect on memory”. The “A540 increase” value in data set [2] worked out at 14 rel.units. In data set [2], the IC50 was 6.7 ± 1.2 µM. The “impairment of mitochondrial respiratory functions accompanying inhibition of MPT” value in data set [3] is on record as “impairment of mitochondrial respiratory functions”. Further, the “concentration at which glutamate-induced 45Ca2+ uptake into synaptosomes was increased” value in data set [4] fell in the range of 50 to 100 µM. Moreover, the “concentration at which glutamate-induced 45Ca2+ uptake into synaptosomes was inhibited” value in data set [4] came to 0.5 µM. The “inhibition of glutamate-induced 45Ca2+ uptake into synaptosomes” value in data set [4] (1 μM (maximal inhibition)) turned out to be 20.5%. Further, the “glutamate-induced 45Ca2+ uptake into synaptosomes of rat cortex, % Ca of control (control-100%)” value in data set [4] (C 0.1 μM) worked out at 111.2 ± 9.2%; in data set [4] (C 0.5 μM), 81.8 ± 14%; in data set [4] (C 1.0 μM), 79.5 ± 11.1%; in data set [4] (C 5.0 μM), 97.9 ± 4.3%; in data set [4] (C 10 μM), 99.9 ± 11.7%; in data set [4] (C 25 μM) it was 93.6 ± 15.7%. For the same compound, the “glutamate-induced 45Ca2+ uptake into synaptosomes of rat cortex, % Ca of control (control-100%)” value in data set [4] (C 50 μM) was found to be 137.5 ± 5.4%; in data set [4] (C 100 μM) it was 125.3 ± 11.2%.
